Calls of active or inactive are those of the source. The rule behind the calls is not given here.
Key:
[1] = species on record: Homo sapiens; test: Stabilization of human telomeric d[5'G3(T2AG3]-3' assessed as change in melting temperature at 25 uM
[2] = molecular target: Telomerase reverse transcriptase (Homo sapiens, UniProt O14746); test: Inhibition of human telomerase assessed as unincorporated [alpha32P]dGTP
[3] = species on record: Homo sapiens; test: Binding affinity to human telomeric d[5'G3(T2AG3]-3' DNA quadruplex assessed as major positive band at 292 nm at 2:1 drug to DNA ratio
[4] = molecular target: T1, Protection of telomeres protein 1 (Homo sapiens, UniProt Q9NUX5); test: Inhibition of human 35S-labeled Pot1 binding to human telomeric DNA
T1 sequence (Q9NUX5 whole entry): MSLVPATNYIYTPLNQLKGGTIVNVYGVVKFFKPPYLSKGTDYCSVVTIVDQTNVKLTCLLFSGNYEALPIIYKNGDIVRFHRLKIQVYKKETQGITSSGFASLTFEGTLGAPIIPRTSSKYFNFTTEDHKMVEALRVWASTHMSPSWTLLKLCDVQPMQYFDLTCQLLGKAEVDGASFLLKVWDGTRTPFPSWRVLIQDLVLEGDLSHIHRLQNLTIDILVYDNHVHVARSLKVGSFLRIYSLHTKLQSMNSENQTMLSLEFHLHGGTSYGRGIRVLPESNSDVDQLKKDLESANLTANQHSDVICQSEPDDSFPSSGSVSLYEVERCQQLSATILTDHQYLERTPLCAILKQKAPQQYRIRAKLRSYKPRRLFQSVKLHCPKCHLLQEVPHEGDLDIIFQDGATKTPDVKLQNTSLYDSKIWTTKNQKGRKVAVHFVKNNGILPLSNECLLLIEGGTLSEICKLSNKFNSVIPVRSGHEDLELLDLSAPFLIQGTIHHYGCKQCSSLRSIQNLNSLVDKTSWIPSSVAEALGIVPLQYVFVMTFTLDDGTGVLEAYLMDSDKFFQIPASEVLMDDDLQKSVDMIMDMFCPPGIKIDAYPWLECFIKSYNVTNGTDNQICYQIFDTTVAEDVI

[5] = Inhibition of non G-quadruplex [TTAGAG]4 DNA templet extension assessed as ligand-induced polymerase stop products by Taq DNA polymerase stop assay
[6] = species on record: Homo sapiens; test: Induction of G-quadruplex structure formation in human telomeric d[5'G3(T2AG3]-3' DNA assessed as major positive band at 295 nm at 2 mole ligand concentration by CD spectroscopy
[7] = species on record: Homo sapiens; test: (§1) Inhibition of human G-quadruplex [TTAGGG]4 DNA templet extension assessed as increase in ligand-induced polymerase stop products by Taq DNA polymerase stop assay
[8] = as §1
[9] = species on record: Homo sapiens; test: Binding affinity to human telomeric d[5'G3(T2AG3]-3' DNA quadruplex assessed as major positive band at 292 nm at 1:1 drug to DNA ratio
[10] = species on record: Homo sapiens; test: Binding affinity to human telomeric d[5'G3(T2AG3]-3' DNA quadruplex assessed as major positive band at 292 nm at >1:1 drug to DNA ratio
[11] = species on record: Homo sapiens; test: Induction of G-quadruplex structure formation in human telomeric d[5'G3(T2AG3]-3' DNA assessed as major positive band at 290 nm at 1 mole ligand concentration by CD spectroscopy

Chain of Telomerase reverse transcriptase (O14746 whole entry): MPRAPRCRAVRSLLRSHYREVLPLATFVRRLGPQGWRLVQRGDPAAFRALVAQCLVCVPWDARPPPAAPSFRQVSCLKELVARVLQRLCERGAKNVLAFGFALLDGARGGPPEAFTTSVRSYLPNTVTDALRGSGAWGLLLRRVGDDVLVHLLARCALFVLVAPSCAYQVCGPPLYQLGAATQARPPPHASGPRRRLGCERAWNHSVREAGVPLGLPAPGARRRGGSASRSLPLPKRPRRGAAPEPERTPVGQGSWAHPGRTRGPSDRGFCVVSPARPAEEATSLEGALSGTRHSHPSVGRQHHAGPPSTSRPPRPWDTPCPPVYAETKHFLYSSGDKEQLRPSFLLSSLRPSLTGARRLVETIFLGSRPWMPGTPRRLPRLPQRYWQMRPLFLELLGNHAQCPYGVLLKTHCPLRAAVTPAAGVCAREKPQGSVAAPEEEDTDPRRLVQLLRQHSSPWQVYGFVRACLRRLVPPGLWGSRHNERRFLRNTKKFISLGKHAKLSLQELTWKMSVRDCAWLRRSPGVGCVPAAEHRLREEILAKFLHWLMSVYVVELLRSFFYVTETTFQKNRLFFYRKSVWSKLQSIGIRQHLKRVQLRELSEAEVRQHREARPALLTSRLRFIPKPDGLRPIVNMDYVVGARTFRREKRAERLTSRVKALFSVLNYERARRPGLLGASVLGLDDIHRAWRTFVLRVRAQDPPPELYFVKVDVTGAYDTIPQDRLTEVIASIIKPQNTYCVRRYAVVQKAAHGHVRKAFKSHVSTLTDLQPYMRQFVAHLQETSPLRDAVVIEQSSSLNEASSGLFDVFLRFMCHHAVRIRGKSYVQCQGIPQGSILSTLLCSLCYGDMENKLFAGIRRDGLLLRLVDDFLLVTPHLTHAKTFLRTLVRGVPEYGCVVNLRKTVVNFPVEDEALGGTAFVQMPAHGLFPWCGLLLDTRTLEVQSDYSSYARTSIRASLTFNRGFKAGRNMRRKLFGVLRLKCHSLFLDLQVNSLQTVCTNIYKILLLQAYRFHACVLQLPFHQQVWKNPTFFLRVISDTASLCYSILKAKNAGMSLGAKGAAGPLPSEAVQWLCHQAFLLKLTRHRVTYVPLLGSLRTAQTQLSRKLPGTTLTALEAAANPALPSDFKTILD

Row | Compound | ΔTm [1] | IC50 [2] | Activity [3] | IC50 [4] | Activity [5] | EC50 [5] | Activity [6] | Activity [7] | EC50 [8] | Activity [9] | Activity [10] | Activity [11]
1 | CN(C)c1ccc(Nc2c3ccc(NC(=O)CCN4CCCC4)cc3nc3cc(NC(=O)CCN4CCCC4)ccc23)cc1 | 18 °C | 5.4 µM | Active | 63 µM | Dose-dependent effect | 19.1 µM | Active | Dose-dependent effect | 1800 nM | – | – | –
2 | O=C(CCN1CCCC1)Nc1ccc2c(NCOCCOCNc3c4ccc(NC(=O)CCN5CCCC5)cc4nc4cc(NC(=O)CCN5CCCC5)ccc34)c3ccc(NC(=O)CCN4CCCC4)cc3nc2c1 | 20 °C | 9 µM | – | 45 µM | Dose-dependent effect | 3.9 µM | – | Dose-dependent effect | 200 nM | Active | inactive | Active
3 | O=C(CCN1CCCC1)Nc1ccc2c(NCNCCNCNc3c4ccc(NC(=O)CCN5CCCC5)cc4nc4cc(NC(=O)CCN5CCCC5)ccc34)c3ccc(NC(=O)CCN4CCCC4)cc3nc2c1 | 28 °C | 7.5 µM | – | 11 µM | – | 0.36 µM | – | – | 71 nM | – | – | Active
4 | O=C(CCN1CCCC1)Nc1ccc2c(NCCCCCCNc3c4ccc(NC(=O)CCN5CCCC5)cc4nc4cc(NC(=O)CCN5CCCC5)ccc34)c3ccc(NC(=O)CCN4CCCC4)cc3nc2c1 | 23 °C | 4 µM | – | 17 µM | – | 4.5 µM | – | – | 850 nM | – | – | Active
